{"source": "paper PMC3288053", "about": "(PLoS ONE, 2012)", "key": {"TC-PTP": {"target": "T1, TC-PTP (Homo sapiens, UniProt P17706)", "T1 construct": "pGEX4T-1-TC-PTP1–288; GST (N); made in house; host or cells: E. coli BL21 (DE3)", "T1 sequence (P17706 1-288)": "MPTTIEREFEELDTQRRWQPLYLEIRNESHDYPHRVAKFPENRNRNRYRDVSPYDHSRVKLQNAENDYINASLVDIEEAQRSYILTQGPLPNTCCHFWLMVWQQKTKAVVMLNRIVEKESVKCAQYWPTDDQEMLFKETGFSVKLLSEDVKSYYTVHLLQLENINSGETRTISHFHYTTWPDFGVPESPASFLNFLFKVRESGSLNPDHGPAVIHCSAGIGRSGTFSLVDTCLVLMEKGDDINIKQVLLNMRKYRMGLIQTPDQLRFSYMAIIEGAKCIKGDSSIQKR", "assay": "PTP enzyme inhibition assay (pNPP substrate)", "type": "biochemical", "details": "PTPs 0.3 µM, pNPP 5 mM, 25°C; NI: No inhibition at 100 µM", "protocol": "(§1) The enzymatic activities of the recombinant PTPs are measured at 25°C using pNPP as substrate. The initial velocities of enzymatic reactions are determined by continuously measuring the absorbance at 405 nm every 15 s using a microplate spectrophotometer (Bio-Rad). […] To determine the inhibition type, each concentration of Rut (0, 50 and 75 µM) is incubated with PTP1B (0.3 µM) in reaction buffer (50 mM HEPES, pH7.0, 1 mM EDTA, and 100 mM NaCl) for 10 min and the reactions are initiated by different concentrations of pNPP (0.5–10 mM). The inhibition type is determined using double-reciprocal plots. In determination of the selectivity of Rut against PTPs, the result is referred as no inhibition when 100 µM Rut inhibits no enzyme activity. The same reaction systems are designed for all PTPs including PTP1B."}, "PTPα": {"target": "T2, PTPα (Homo sapiens, UniProt P18433)", "T2 construct": "pGEX2T-PTPα182–803; GST (N); made in house; host or cells: E. coli BL21 (DE3)", "assay": "PTP enzyme inhibition assay (pNPP substrate)", "type": "biochemical", "details": "read-out: IC50 PTPα; PTPs 0.3 µM, pNPP 5 mM, 25°C; NI: No inhibition at 100 µM", "protocol": "as §1"}, "RXRα:RXRα": {"target": "T3, RXRα:RXRα (Homo sapiens, UniProt P19793)", "T3 construct": "expressed in transfected cells; host or cells: HEK293", "T3 sequence (P19793 whole entry)": "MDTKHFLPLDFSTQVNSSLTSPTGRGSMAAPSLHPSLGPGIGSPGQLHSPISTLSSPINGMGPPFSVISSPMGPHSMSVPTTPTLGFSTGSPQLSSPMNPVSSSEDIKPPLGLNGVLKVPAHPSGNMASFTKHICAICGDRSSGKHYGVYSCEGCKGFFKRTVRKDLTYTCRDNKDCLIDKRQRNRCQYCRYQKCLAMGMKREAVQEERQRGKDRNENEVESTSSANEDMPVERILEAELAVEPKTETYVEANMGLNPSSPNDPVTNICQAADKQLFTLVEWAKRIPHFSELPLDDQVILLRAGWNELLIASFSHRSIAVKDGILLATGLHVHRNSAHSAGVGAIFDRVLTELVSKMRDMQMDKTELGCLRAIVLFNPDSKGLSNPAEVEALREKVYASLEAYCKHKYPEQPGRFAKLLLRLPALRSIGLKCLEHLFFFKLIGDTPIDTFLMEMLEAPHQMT", "assay": "Transient transfection luciferase assay in HEK293 cells (RXRE)", "type": "cell-based", "details": "HEK293, 24 h", "protocol": "HEK293 cells are transiently transfected by Lipo2000 respectively with RXRα, PPARγ, FXR, and LXRα plasmids plus pGL3-RXRE luciferase vector and renilla luciferase vector for 5 hours. Cells are then incubated with indicated concentrations of compounds for another 24 h and finally lysed. Luciferase activities are measured using Dual Luciferase Assay System kit. Rut dose-dependently activates (a) RXRα:RXRα and (b) PPARγ:RXRα activities. Rut has no effects on (c) FXR: RXRα and (d) LXRα:RXRα activities. Data are presented as means ± s.e.m (*P<0.05, **P<0.01) from three independent experiments.\n(§2) HEK293 cells are transfected with luciferase reporter plus Renilla luciferase vector and other plasmids if needed for 5 hours, and cells are then incubated with indicated concentrations of compounds for another 24 h. Finally cells are lysed and luciferase activities are measured using Dual Luciferase Assay System kit. The results are presented as the fold activation relative to untreated cells after normalization with Renilla luciferase values. Each experiment is repeated at least twice, with each sample analyzed in triplicates."}, "GLUT4 promoter": {"test_system": "GLUT4 promoter", "assay": "GLUT4 promoter luciferase assay with rxrα or pparγ siRNA", "type": "cell-based", "details": "Rut 20 µM", "protocol": "as §2"}, "PPARγ-LBD": {"target": "T4, PPARγ-LBD (Homo sapiens, UniProt P37231)", "T4 construct": "pET15b-PPARγ-LBD202–477; His-tag (N); made in house; host or cells: E. coli BL21 (DE3)", "T4 sequence (P37231 230-505)": "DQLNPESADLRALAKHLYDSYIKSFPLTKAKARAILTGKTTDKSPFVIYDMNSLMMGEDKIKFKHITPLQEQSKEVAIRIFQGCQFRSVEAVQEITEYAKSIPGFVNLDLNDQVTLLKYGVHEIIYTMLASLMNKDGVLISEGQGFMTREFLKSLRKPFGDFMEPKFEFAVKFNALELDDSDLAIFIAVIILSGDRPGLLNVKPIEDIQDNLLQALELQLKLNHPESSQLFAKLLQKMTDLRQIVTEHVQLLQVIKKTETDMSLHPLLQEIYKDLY", "assay": "SPR (Biacore) binding assay", "details": "1:1 Langmuir fitting", "protocol": "Binding affinities of Rut towards proteins are analyzed using SPR technology based Biacore 3000 instrument (GE Healthcare). In the assay, proteins are immobilized to CM5 chips using a standard amine-coupling procedure (Biacore manual). The proteins to be covalently bound to the chips are diluted in 10 mM sodium acetate buffer (pH4.5) to a final concentration of 0.10 mg/ml. Before experiments, baseline is equilibrated with a continuous flow of running buffer (10 mM HEPES, 150 mM NaCl, 3 mM EDTA, and 0.005% (v/v) surfactant P20, pH7.4) for 2 hours. Subsequently, Rut with a gradient of concentrations is injected to the channels at a flow rate of 20 µL/min for 60 seconds, followed by disassociation for 120 seconds. The 1∶1 Langmuir binding fitting model in BIAevaluation software version 3.1 (Biacore) is used to determine the equilibrium dissociation constants (K Ds) of compounds. […] Different concentrations of PPARγ-LBD or RXRα-LBD are injected to the channel at a flow rate of 20 µL/min for 60 s, followed by disassociation for 120 s."}, "3T3-L1 adipocytes": {"test_system": "3T3-L1 adipocytes", "assay": "GLUT4 translocation by immunofluorescence in 3T3-L1 adipocytes", "type": "cell-based", "details": "Rut 20 µM, insulin 17 nM", "protocol": "For GLUT4 translocation assay in 3T3-L1 adipocytes, the cells are fully differentiated (the 10th day after MDI stimulation), and seeded onto 24-well plates. After cultured in serum-free medium for 8 h, cells are incubated with Rut for 2 h and insulin for 10 min, and then rinsed with PBS, fixed with 4% formaldehyde for 10 min, and permeated with 0.2% Triton X-100 in PBS for 10 min. Cells are subsequently washed with PBS and 3% bovine serum albumin for 20 min, and sequentially incubated with primary antibody (Abcam GLUT4 antibody) for 1 h and secondary antibody (Alexa Fluor 488 conjuncted anti-mouse antibody) for another 1 h. Finally, the glass-slips are washed with PBS for examination using OLYMPUS FV-1000 confocal microscope. All pictures are made in the same time experiment."}, "epididymis fat tissues": {"test_system": "epididymis fat tissues", "assay": "Gene and protein expression in epididymis fat tissues of treated DIO mice", "type": "in vivo", "protocol": "Four mice in each group are employed for the determination of gene expression. The total RNA is extracted from epididymis fat tissues (75 mg/mice) with TRIzol reagent, and the cDNA is synthesized using PrimeScript™ RT reagent Kit. Real-time PCR is performed using SYBR Green Real time PCR master mix on DNA Engine Opticon 2 System. The PCR cycle is 94°C for 20 seconds, 60°C for 30 seconds and 72°C for 30 seconds. The primer pairs for the related genes are described in Supplementary Table S2. The epididymis fat is lysed and the supernatant is separated by SDS-PAGE and transferred to polyvinylidene difluoride membranes (Millipore). Membranes are incubated in blocking buffer (BB) containing 5% skimmed milk with 0.5% Tween 20 in Tris-buffered saline and immunoblotted with the related antibodies overnight at 4°C in BB. After incubation, membranes are washed and incubated with horseradish peroxidase-labeled secondary antibodies (Amersham), and then the proteins are detected by SuperSignal West Pico chemiluminescent substrate (Pierce)."}}, "data": [{"smiles": "C=CC(C)(C)c1cc2cc3c(cc2oc1=O)O[C@H](C(C)(C)OC(C)=O)C3", "note": "[(+)-Rutamarin]", "values": [{"measurement": "IC50", "setting": "TC-PTP", "result": 26.8, "unit": "µM"}, {"measurement": "IC50", "setting": "PTPα", "result": "> 100", "unit": "µM"}, {"measurement": "activity of RXR-response element (RXRE)", "setting": "RXRα:RXRα", "result": "dose-dependently enhance"}, {"measurement": "Relative glut4-pro activity", "setting": "GLUT4 promoter; Fig. 6b, pSuperbasic control vector", "result": 1.31, "unit": "X"}, {"measurement": "Relative glut4-pro activity", "setting": "GLUT4 promoter; Fig. 6b, pSuperbasic-RXRα (rxrα siRNA)", "result": 0.98, "unit": "X"}, {"measurement": "Relative glut4-pro activity", "setting": "GLUT4 promoter; Fig. 6c, pSuperbasic control vector", "result": 1.55, "unit": "X"}, {"measurement": "Relative glut4-pro activity", "setting": "GLUT4 promoter; Fig. 6c, pSuperbasic-PPARγ (pparγ siRNA)", "result": 1.39, "unit": "X"}, {"measurement": "equilibrium dissociation constant KD / binding to PPARγ-LBD", "setting": "PPARγ-LBD", "result": "no binding"}, {"measurement": "GLUT4 translocation in fully differentiated 3T3-L1 adipocytes", "setting": "3T3-L1 adipocytes", "result": "significantly induces"}, {"measurement": "insulin receptor (IR) phosphorylation in epididymis fat tissues", "setting": "epididymis fat tissues; Rut 2 mg/kg IP, 2 weeks", "result": "efficiently improve"}, {"measurement": "mRNA levels of PPARγ:RXRα-regulated genes (pepck, GLUT4 and adiponectin)", "setting": "epididymis fat tissues; Rut 10 mg/kg, epididymis fat tissues", "result": "efficiently increase"}, {"measurement": "GLUT4 expression in epididymis fat tissues", "setting": "epididymis fat tissues; Rut 2 and 10 mg/kg", "result": "increases GLUT4 expression"}]}]}
